In the supplement of paper PMC11061612:

Key:
[1] = tested on: BHT-101 (Thyroid Gland Carcinoma); assay: Bliss excess, mean over the matrix (fraction); higher = more synergy
In short: (§1)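 Cell lines in DMEM/F12 or RPMI with 10% FBS were plated in 1536-well plates, held 24 hours at 37°C, 5% CO2, then given two-drug dose matrices for 72 hours (DMSO typically 0.2%). Viability was read by CellTiter-Glo 2.0 luminescence and scaled as inhibition from 0 (vehicle wells) to 1 (blank wells). Combination Emax is the second-highest inhibition in the matrix; Bliss excess is observed combination effect minus expected EA + EB − EA·EB, EA and EB being single-agent effects.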

[2] = tested on: MOLT-13 (T-Lymphoblastic Leukemia); assay: as above
In short: as §1

[3] = tested on: MDA-MB-415 (Breast Carcinoma); assay: as above
In short: as §1

[4] = tested on: NAMALWA (Burkitt's Lymphoma); assay: combination Emax (second highest fraction inhibited in the dose matrix, 72 h); higher = more inhibition; extreme values may be limits of the assay
In short: as §1

[5] = tested on: LCLC-103H (Non-Small Cell Lung Carcinoma); assay: as above
In short: as §1

[6] = tested on: RCC-JW (Kidney Carcinoma); assay: as above
In short: as §1

[7] = tested on: ZR-75-30 (Breast Carcinoma); assay: as above
In short: as §1

UACC-257 (Melanoma) = assay: as above
In short: as §1

[8] = tested on: P30-OHK (B-Lymphoblastic Leukemia); assay: as above
In short: as §1

[9] = tested on: NCI-H1963 (Small Cell Lung Carcinoma); assay: as above
In short: as §1

[10] = tested on: Raji (Burkitt's Lymphoma); assay: as above
In short: as §1

AM-38 (Glioblastoma) = assay: as above
In short: as §1

[11] = tested on: MM1S (Plasma Cell Myeloma); assay: as above
In short: as §1

WM35 (Melanoma) = assay: as above
In short: as §1

[12] = tested on: SNU-C2B (Colorectal Carcinoma); assay: as above
In short: as §1

[13] = tested on: PA-TU-8988T (Pancreatic Carcinoma); assay: as above
In short: as §1

[14] = tested on: NCI-H1876 (Small Cell Lung Carcinoma); assay: as above
In short: as §1

NB1 (Neuroblastoma) = assay: as above
In short: as §1

[15] = tested on: SNU-423 (Hepatocellular Carcinoma); assay: as above
In short: as §1

[16] = tested on: MDA-MB-415 (Breast Carcinoma); assay: as above
In short: as §1
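For Bliss excess, mean over the matrix in this document: after 72 h of two-drug dosing.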

Structure (SMILES) | Bliss excess [1] | Bliss excess [2] | Bliss excess [3] | combination Emax [4] | combination Emax [5] | combination Emax [6] | combination Emax [7] | combination Emax (UACC-257 (Melanoma)) | combination Emax [8] | combination Emax [9] | combination Emax [10] | combination Emax (AM-38 (Glioblastoma)) | combination Emax [11] | combination Emax (WM35 (Melanoma)) | combination Emax [12] | combination Emax [13] | combination Emax [14] | combination Emax (NB1 (Neuroblastoma)) | combination Emax [15] | combination Emax [16]
Cc1cc2ncnn2cc1Nc1ncc2c(n1)n(C1CCOCC1)c(=O)n2C [AZD7648] + C=CCn1c(=O)c2cnc(Nc3ccc(N4CCN(C)CC4)cc3)nc2n1-c1cccc(C(C)(C)O)n1 [AZD1775] (first compound max 10 µM, partner max 1 µM) | 0.0005 | 0.0144 | -0.027 | 0.96 | 0.552 | 0.413 | 0.137 | 0.226 | 0.754 | 0.873 | 0.755 | 0.343 | 0.811 | 0.294 | 0.551 | 0.749 | 0.976 | 0.847 | 0.497 | 0.488
Cc1cc2ncnn2cc1Nc1ncc2c(n1)n(C1CCOCC1)c(=O)n2C [AZD7648] + CCN(CCO)CCCOc1ccc2c(Nc3cc(CC(=O)Nc4cccc(F)c4)[nH]n3)ncnc2c1 [AZD2811] (first compound max 10 µM, 7x7, partner max 1 µM) | -0.0091 | -0.0152 | -0.002 | 0.432 | 0.377 | 0.447 | 0.141 | 0.278 | 0.85 | 0.866 | 0.19 | 0.405 | 0.346 | 0.155 | 0.224 | 0.33 | 0.794 | 0.629 | 0.341 | 0.472
Cc1cc2ncnn2cc1Nc1ncc2c(n1)n(C1CCOCC1)c(=O)n2C [AZD7648] + CN(C)CCCOc1ccc(-c2ccc3ncc4c(c3c2)n(C2CCOCC2)c(=O)n4C)cn1 [AZD0156] (first compound max 10 µM, 7x7, partner max 1 µM) | 0.0659 | 0.0053 | -0.0254 | 0.266 | 0.338 | 0.339 | 0.194 | 0.186 | 0.376 | 0.211 | 0.227 | 0.417 | 0.389 | 0.129 | 0.311 | 0.271 | 0.317 | 0.238 | 0.341 | 0.504
Cc1cc2ncnn2cc1Nc1ncc2c(n1)n(C1CCOCC1)c(=O)n2C [AZD7648] + C[C@@H]1COCCN1C2=NC(=NC(=C2)C3(CC3)[S@](=N)(=O)C)C4=C5C=CNC5=NC=C4 [AZD6738] (first compound max 10 µM, 7x7, partner max 10 µM) | 0.0197 | -0.0154 | 0.0354 | 0.936 | 0.58 | 0.568 | 0.17 | 0.15 | 0.811 | 0.728 | 0.779 | 0.758 | 0.592 | 0.497 | 0.63 | 0.378 | 0.809 | 0.775 | 0.524 | 0.515
Cc1cc2ncnn2cc1Nc1ncc2c(n1)n(C1CCOCC1)c(=O)n2C [AZD7648] + O=C(c1cc(Cc2n[nH]c(=O)c3ccccc23)ccc1F)N1CCN(C(=O)C2CC2)CC1 [Olaparib] (first compound max 10 µM, 7x7, partner max 10 µM) | -0.0071 | 0.0242 | -0.0121 | 0.578 | 0.299 | 0.198 | 0.12 | 0.0535 | 0.364 | 0.299 | 0.396 | 0.616 | 0.339 | 0.119 | 0.28 | 0.339 | 0.723 | 0.191 | 0.275 | 0.263
NC1(C(=O)N[C@@H](CCO)c2ccc(Cl)cc2)CCN(c2ncnc3[nH]ccc23)CC1 [Capivasertib] + CC(=O)c1c(C)c2cnc(Nc3ccc(N4CCNCC4)cn3)nc2n(C2CCCC2)c1=O [Palbociclib] (first compound max 10 µM, 7x7, partner max 10 µM) | -0.0022 | 0.0311 | -0.0234 | 0.701 | 0.448 | 0.449 | 0.396 | 0.276 | 0.56 | 0.477 | 0.491 | 0.473 | 0.981 | 0.263 | 0.424 | 0.456 | 0.253 | 0.697 | 0.458 | 0.769
NC1(C(=O)N[C@@H](CCO)c2ccc(Cl)cc2)CCN(c2ncnc3[nH]ccc23)CC1 [Capivasertib] + CC(C)n1c(=O)n(C)c2cnc3cc(F)c(-c4ccc(OCCCN5CCCCC5)nc4)cc3c21 [AZD1390] (first compound max 10 µM, 7x7, partner max 0.3 µM) | -0.0197 | -0.037 | -0.0297 | 0.44 | 0.267 | 0.387 | 0.419 | 0.26 | 0.176 | 0.434 | 0.185 | 0.17 | 0.999 | 0.259 | 0.303 | 0.278 | 0.172 | 0.626 | 0.503 | 0.846
NC1(C(=O)N[C@@H](CCO)c2ccc(Cl)cc2)CCN(c2ncnc3[nH]ccc23)CC1 [Capivasertib] + CCN(CCO)CCCOc1ccc2c(Nc3cc(CC(=O)Nc4cccc(F)c4)[nH]n3)ncnc2c1 [AZD2811] (first compound max 10 µM, 7x7, partner max 1 µM) | -0.0124 | -0.0569 | 0.0001 | 0.713 | 0.413 | 0.358 | 0.442 | 0.394 | 0.886 | 0.93 | 0.293 | 0.285 | 0.998 | 0.328 | 0.329 | 0.546 | 0.941 | 0.79 | 0.571 | 0.837
NC1(C(=O)N[C@@H](CCO)c2ccc(Cl)cc2)CCN(c2ncnc3[nH]ccc23)CC1 [Capivasertib] + COc1nnc2ccc(N3CCC(c4ccc(OCCN5CCN(C)C(=O)[C@H]5C)cc4)CC3)nn12 [AZD5153] (first compound max 10 µM, 7x7, partner max 1 µM) | -0.0479 | -0.0111 | 0.0467 | 0.961 | 0.559 | 0.601 | 0.353 | 0.355 | 1 | 0.767 | 0.646 | 0.448 | 1 | 0.538 | 0.54 | 0.798 | 0.579 | 0.885 | 0.513 | 0.9
NC1(C(=O)N[C@@H](CCO)c2ccc(Cl)cc2)CCN(c2ncnc3[nH]ccc23)CC1 [Capivasertib] + C[C@@H]1COCCN1C2=NC(=NC(=C2)C3(CC3)[S@](=N)(=O)C)C4=C5C=CNC5=NC=C4 [AZD6738] (first compound max 10 µM, 7x7, partner max 10 µM) | -0.0345 | -0.0387 | -0.0516 | 0.937 | 0.524 | 0.635 | 0.469 | 0.389 | 0.936 | 0.885 | 0.724 | 0.7 | 0.99 | 0.311 | 0.647 | 0.625 | 0.934 | 0.853 | 0.586 | 0.846
NC1(C(=O)N[C@@H](CCO)c2ccc(Cl)cc2)CCN(c2ncnc3[nH]ccc23)CC1 [Capivasertib] + Cn1cnc2c(F)c(Nc3ccc(Br)cc3Cl)c(C(=O)NOCCO)cc21 [Selumetinib] (first compound max 10 µM, 7x7, partner max 10 µM) | 0.081 | 0.0339 | 0.0162 | 0.387 | 0.389 | 0.369 | 0.501 | 0.731 | 0.186 | 0.492 | 0.192 | 0.675 | 1 | 0.782 | 0.388 | 0.689 | 0.239 | 0.776 | 0.491 | 0.85
Cc1nc(Nc2ncc(C(=O)Nc3c(C)cccc3Cl)s2)cc(N2CCN(CCO)CC2)n1 [Dasatinib] + CC(=O)Nc1cccc(-n2c(=O)n(C3CC3)c(=O)c3c(Nc4ccc(I)cc4F)n(C)c(=O)c(C)c32)c1 [Trametinib] (first compound max 2 µM, 7x7, partner max 1 µM) | 0.0569 | 0.0463 | -0.0197 | 0.407 | 0.326 | 0.859 | 0.0302 | 0.644 | 0.202 | 0.38 | 0.134 | 0.713 | 0.227 | 0.837 | 0.66 | 0.887 | 0.165 | 0.139 | 0.832 | 0.385
COc1cccc2c1C(=O)c1c(O)c3c(c(O)c1C2=O)C[C@@](O)(C(=O)CO)C[C@@H]3O[C@H]1C[C@H](N)[C@H](O)[C@H](C)O1 [Doxorubicin] + Cc1cc2ncnn2cc1Nc1ncc2c(n1)n(C1CCOCC1)c(=O)n2C [AZD7648] (first compound max 1 µM, 7x7, partner max 10 µM) | 0.0409 | 0.209 | -0.039 | 0.976 | 0.85 | 0.75 | 0.3 | 0.431 | 0.975 | 0.799 | 0.96 | 0.826 | 0.922 | 0.564 | 0.546 | 0.791 | 0.978 | 0.89 | 0.713 | 0.568
